Key:
Assay type in all cases: cell-based
[1] = tested on: human granulocytes; assay: Intracellular calcium [Ca2+]i in granulocytes
Protocol: Granlocytes were isolated by density gradient centrifugation from the peripheral blood of healthy donors, after informed consent. Contaminating erythrocytes were removed by hypotonic lysis. […] The increase of [cADPR]i in turn induces a progressive rise of [Ca^2+]i, from a basal value of 50±2 nM to 170±25 nM after 10 min from the addition of 10 μM ABA (n=4). […] The increase of the [Ca^2+]i induced by ABA in granulocytes is in turn responsible for activation of several functional activities typical of these cells. The functional effects induced by ABA (at concentrations ranging between 0.2 and 20 μM) in granulocytes include stimulation of the production of reactive oxygen species (ROS), measured through the cytochrome c […] (FIG. 2A), and of nitric oxide (NO), measured as accumulation of nitrite, the end-product of NO […] (FIG. 2B).

[2] = tested on: human granulocytes; assay: NO release by granulocytes (nitrite, Griess)
Protocol: Granulocytes were resuspended at 5×10^6/ml in HBSS and 225 μl of the cell suspension were added to 50 μl of 0.2 mM cytochrome c and were incubated for 30 min at 37° C. in the absence (control) or in the presence of 250 nM or 20 μM ABA, the latter concentration without or with 1 mM EDTA, 20 mM nicotinamide or 0.1 mM 8-Br-cADPR. […] The results are expressed as the production relative to control cells, not stimulated with ABA, and are the mean ±SD from 5 experiments.
The method used to determine NO released from the cells into the medium exploits the spontaneous conversion of NO to nitrates and the subsequent enzymatic reduction of nitrates to nitrites by the enzyme nitrate reductase. […] Granulocytes (60×10^6/well) or murine microglia cells N9 (2×10^5/well) were incubated in 24-well plates for 60 min at 37° C. in the presence of ABA at different concentrations. The supernatants were then centrifuged and diluted with an equal volume of Griess reagent (0.1% naphthyl-ethylenediamine dihydrochloride in distilled water, 1% sulphanylamide in 5% concentrated H3PO4). Absorbance at 545 nm was estimated after 10 min and the nitrite concentration was calculated using a standard curve, generated in parallel with known amounts of NaNO2.

[3] = tested on: human granulocytes; assay: ROS production by granulocytes (cytochrome c assay)
Protocol: Granulocytes were resuspended at 5×10^6/ml in HBSS and 225 μl of the cell suspension were added to 50 μl of 0.2 mM cytochrome c and were incubated for 30 min at 37° C. in the absence (control) or in the presence of 250 nM or 20 μM ABA, the latter concentration without or with 1 mM EDTA, 20 mM nicotinamide or 0.1 mM 8-Br-cADPR. The amount of ROS (panel A) or of NO (panel B) in the cell supernatant was measured as described in Materials and Methods. The results are expressed as the production relative to control cells, not stimulated with ABA, and are the mean ±SD from 5 experiments.
Release of superoxide (O2^−) by human granulocytes was quantified by a spectrophotometric assay of cytochrome c reduction (Cohen, J Clin Invest 1978). Granulocytes were resuspended in HBSS (at 5×10^6 cells/ml) and 225 μl of the cell suspension was incubated for 30 min at 37° C. with 50 μl cytochrome c (0.2 mM) in the absence (control) or in the presence of ABA at different concentrations. Then, cells were centrifuged at 5,000×g for 15 s and the absorbance of the supernatants was recorded at 550 nm (λmax for reduced cytocrome c).

[4] = tested on: human granulocytes; assay: Chemotaxis and chemokinesis of granulocytes
Protocol: Assays were performed using 96-well ChemoTx system microplates with a 3-μm pore size polycarbonate filter (NeuroProbe Inc., Gaithersburg, USA). Cells (granulocytes or murine microglia) were resuspended at 10^7/ml in HBSS, PBS and 5% albumin, 39:16:1 (chemotaxis buffer, CB). In order to evaluate the chemoattractant effect of ABA, hormone concentrations ranging from 50 nM to 20 μM were added in CB in the bottom wells and 25 μl cell suspensions were placed on top of the filter. To evaluate a possible stimulatory effect of ABA on spontaneous cell movements (chemokinesis), cells were pre-incubated with or without 20 μM ABA, then washed and placed on top of the filter, in contact with CB. Plates were incubated at 37° C. for 60 min and transmigrated cells were recovered and quantified by fluorimetric assay with Cytox Green. The number of transmigrated cells was calculated by comparison of the measured fluorescence with that of a standard curve, obtained by directly placing a serial dilution of cells in the bottom wells. The results of the chemotaxis experiments are expressed as “chemotaxis index” (CI): CI=number of cells migrated towards chemoattractant/number of cells migrated towards CB

| SMILES | effect on the ABA-induced increase of [Ca2+]i [1] | effect on ABA-induced NO production [2] | effect on ABA-induced ROS production [3] | inhibition of the ABA-induced increase of [Ca2+]i [1] | effect on ABA-induced chemokinesis and chemotaxis [4] |
| --- | --- | --- | --- | --- | --- |
| O=C(O)CN(CCOCCOCCN(CC(=O)O)CC(=O)O)CC(=O)O [EGTA] | almost completely prevents |  |  |  |  |
| O=C(O)CN(CCN(CC(=O)O)CC(=O)O)CC(=O)O [EDTA, reference compound] |  | inhibited | inhibited |  |  |
| N=c1c2nc(Br)n3c2ncn1C1OC(COP(=O)(O)OP(=O)(O)OCC2OC3C(O)C2O)C(O)C1O (stereo not shown) [8-Br-cADPR, reference compound] |  | inhibited | inhibited | approx. 60% | inhibited |
| NC(=O)c1cccnc1 [nicotinamide, reference compound] |  | inhibited | inhibited |  | inhibited |

Reference: US7786042B2, “Fluridone as an anti-inflammatory agent” (Universita' Degli Studi Di Genova, priority 2005, dated 2010)
